{"source": "patent US10987325B2", "about": "“Compositions and uses thereof for treating inflammatory diseases and probiotic compositions” (CHAIN Biotechnology Limited, priority 2016, dated 2021)", "key": {"[1]": {"test_system": "primary human intestinal organoids", "test": "Primary human intestinal organoids, TNFα (40 ng/mL) induced inflammation, mRNA of NF-κB and TNFα by qPCR", "type": "cell-based", "settings": "10 μM, 18 hours"}, "IL-23": {"test_system": "IL-23", "test": "Primary human intestinal organoids, TNF-α (60 ng/mL), IL-23 mRNA at increasing concentrations, qPCR", "type": "cell-based", "settings": "24 hours; for impact on IL-23 expression compared with butyrate: at 10-100 μM", "method": "Primary human intestinal organoids were cultured for 8 weeks prior to experiments as described in […] et al. (2013) Stem Cell Reports."}, "[2]": {"test_system": "ex vivo colon tissue samples", "test": "Ex-vivo human colon tissue model, TNF-α stimulus, protein in culture supernatants by Luminex", "type": "cell-based", "description": "Colorectal specimens can be obtained from surgical resections of intestinal tissue or from biopsies, after receiving signed informed consent from the patients. Following resection of tissue, specimens are kept in a specimen collection pot containing DMEM for transportation to the laboratory. Put the specimen in a Petri plate with some medium. Strip the muscle from the resected specimen with sterile scalpel. Transfer the remaining tissue into a new Petri plate with medium and cut the tissue into explants comprising both epithelial and muscularis mucosae (Berry […]. Methods Mol. Biol. 2011; 665: 133-60). Proceed to assay. To induce inflammation, explants are incubated with 100 μl of inflammatory stimulus (TNF-α 15 μg/ml) in 96-well U-bottom sterile plates. Incubate explants for one hour with […] of complete medium (DMEM containing FCS, L-glutamine and antibiotics). […] Tissue explants are then cultured at 37° C. in an atmosphere containing 5% CO2 for 24 hours. Negative controls are tissue explants cultured without stimulus nor candidate compounds (add 200 μl of complete medium). Positive controls are explants treated only with inflammatory stimulus. Following culture, remove tissue explants from culture wells, spin down plates and harvest 180 μl of the culture supernatant. Freeze supernatants and tissue explants at -80° C. Proceed to quantification of analytes of interest in supernatants and/or tissue explants. The Luminex method was used to determine protein concentration in culture supernatants: Luminex Protocol: In house assay was conducted by Dr Carolina Herrera at St Mary's Hospital, Paddington, London. Luminex Assay Buffer: PBS, goat serum, mouse serum, Tween 20, Tris pH 7-8. Luminex Wash Buffer: PBS, Tween-20. Procedure: […] Relative protein level [ng/mL] was determined using a standard curve."}, "[3]": {"test_system": "ex vivo colon tissue samples", "test": "Ex-vivo human colon tissue model, TNF-α stimulus, Proteome Profiler Human XL Cytokine Array", "type": "cell-based", "settings": "TNF-α 60 min then 10 mM for 24 hours, versus TNF-α alone", "method": "To induce inflammation, explants are incubated with 100 μl of inflammatory stimulus (TNF-α 15 μg/ml) in 96-well U-bottom sterile plates. Incubate explants for one hour with […] of complete medium (DMEM containing FCS, L-glutamine and antibiotics). […] Tissue explants are then cultured at 37° C. in an atmosphere containing 5% CO2 for 24 hours. Negative controls are tissue explants cultured without stimulus nor candidate compounds (add 200 μl of complete medium). Positive controls are explants treated only with inflammatory stimulus. Following culture, remove tissue explants from culture wells, spin down plates and harvest 180 μl of the culture supernatant. Freeze supernatants and tissue explants at −80° C. Proceed to quantification of analytes of interest in supernatants and/or tissue explants. A Proteome Profiler™ Array was used to measure the relative abundance of a larger set of proteins and cytokines involved in the immune response. The experimental conditions and the preparation of the colon tissue samples was the same as described above. The Human XL Cytokine Array Kit (www.rndsystems.com), Catalog Number ARY022 was used for this experiment. Cytokines, chemokines and growth factors are extracellular signaling molecules that mediate cell to cell communication. These molecules are released from cells and have critical roles in many biological processes such as cellular growth, differentiation, gene expression, migration, immunity and inflammation. In most biological processes, multiple cytokines operate in a large network, where the action of one cytokine is regulated by the presence or absence of other cytokines. The Human XL Cytokine Array Kit is a rapid, sensitive, and economic tool to simultaneously detect cytokine differences between samples. The relative expression levels of 102 human soluble proteins can be determined without performing numerous immunoassays. Capture and control antibodies have been spotted in duplicate on nitrocellulose membranes. […]"}, "[4]": {"test_system": "primary human intestinal organoids", "test": "Primary human intestinal organoids, TNF-α (40 ng/mL) induced inflammation, mRNA panel of inflammation factors by qPCR"}, "[5]": {"settings": "TNF-α 60 min then 10 mM for 24 hours, versus TNF-α alone"}, "[6]": {"settings": "ex vivo colon tissue, data not shown"}, "[7]": {"settings": "TNF-α 40 ng/mL, sodium salts at 10 μM, 18 hours, versus TNF-α alone"}}, "data": [{"substance": "(R)-3-hydroxybutyrate [(R)-3-HB]", "values": [{"measurement": "mRNA expression of NF-κB", "setting": "[1]", "value": "decreased"}, {"measurement": "mRNA expression of TNF-α", "setting": "[1]", "value": "decreased"}, {"measurement": "impact on IL-23 expression compared with butyrate", "setting": "IL-23", "value": "greater reducing impact"}, {"measurement": "impact on IL-23 expression compared with butyrate", "setting": "IL-23; listed as (R)-3HB", "value": "greater reducing effect"}, {"measurement": "concentrations effective at reducing expression of IL-23", "setting": "IL-23; sodium salts", "value": "10 to 100", "unit": "µM"}, {"measurement": "protein concentration of IL-1β", "setting": "[2]; [5]", "value": "decreased"}, {"measurement": "protein concentration of IL-6", "setting": "[2]; [5]", "value": "decreased"}, {"measurement": "protein concentration of IL-12", "setting": "[2]; [5]", "value": "decreased"}, {"measurement": "protein concentration of anti-inflammatory cytokine IL-10", "setting": "[2]; [5]", "value": "increased"}, {"measurement": "effect on major protective regulators of intestinal inflammation compared with butyrate", "setting": "[2]; [6]", "value": "greater inducing effect"}, {"measurement": "effect on multiple pro-inflammatory regulators of IBD compared with butyrate", "setting": "[2]; [6]", "value": "greater reducing effect"}, {"measurement": "protein concentration of IL-23 (relative abundance, non-quantitative)", "setting": "[3]", "value": "decreased"}, {"measurement": "protein concentration of MMP9 (relative abundance, non-quantitative)", "setting": "[3]", "value": "decreased"}, {"measurement": "protein concentration of TNF-α (relative abundance, non-quantitative)", "setting": "[3]", "value": "decreased"}, {"measurement": "mRNA expression of IL-6", "setting": "[4]; [7]", "value": "decreased"}, {"measurement": "mRNA expression of IL-23", "setting": "[4]; [7]", "value": "decreased"}, {"measurement": "mRNA expression of NF-κβ", "setting": "[4]; [7]", "value": "decreased"}, {"measurement": "mRNA expression of TNF-α", "setting": "[4]; [7]", "value": "decreased"}, {"measurement": "mRNA expression of anti-inflammatory cytokine IL-10", "setting": "[4]; [7]", "value": "increased"}, {"measurement": "mRNA expression of anti-inflammatory cytokine TGF-β1", "setting": "[4]; [7]", "value": "increased"}, {"measurement": "effect on major protective regulators of intestinal inflammation compared with butyrate", "setting": "[4]; organoids, data not shown", "value": "greater inducing effect"}, {"measurement": "effect on multiple pro-inflammatory regulators of IBD compared with butyrate", "setting": "[4]; organoids, data not shown", "value": "greater reducing effect"}]}]}
